The values below come from patent publication US20140213538A1, “LYSOPHOSPHATIDIC ACID RECEPTOR ANTAGONISTS” (InterMune, Inc., priority 2013, published 2014).

Structures are written as SMILES. Some results are limits rather than exact numbers.

For this test, the target named is T1, LPA/S1P GPCR of interest (Homo sapiens, UniProt Q92633).
T1 construct: host or cells: CHO
Briefly: Beta-Arrestin based assay (PathHunter). The class given is cell-based. The procedure:
CMV promoter based DNA constructs expressing a fusion of the LPA/S1P GPCR of interest and ProLink™ tag were used to transfect EA Parental™ CHO cells (DiscoverX, Fremont, Calif.) using a FuGENE® transfection kit (Roche). Beta-Arrestin based assays were conducted 24-48 hrs post transfection using PathHunter® assay kits (DiscoverX, Fremont, Calif.). Agonist and antagonist assays were performed in quadruplicate in white 384 well plates. End point luminescence data were plotted and fit to a 4 parameter logistic function to obtain IC50 values. For antagonist assays, an IC80 concentration of agonist (LPA) equal to 0.5 micromolar was used.

T1 sequence (Q92633 whole entry): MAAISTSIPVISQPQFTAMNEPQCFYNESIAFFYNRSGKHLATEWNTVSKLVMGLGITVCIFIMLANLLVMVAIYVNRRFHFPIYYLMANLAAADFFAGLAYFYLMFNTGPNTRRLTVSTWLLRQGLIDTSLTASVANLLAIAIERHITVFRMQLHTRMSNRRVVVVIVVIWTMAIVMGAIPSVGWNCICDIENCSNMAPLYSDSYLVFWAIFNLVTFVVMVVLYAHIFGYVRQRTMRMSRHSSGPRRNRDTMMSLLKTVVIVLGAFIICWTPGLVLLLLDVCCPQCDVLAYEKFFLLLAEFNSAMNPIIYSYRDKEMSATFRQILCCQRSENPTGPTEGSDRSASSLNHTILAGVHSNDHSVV

As to `Cc1nsc(-c2cc3sc(-c4ccc5scc(C6(C(=O)O)CC6)c5c4)cc3s2)c1NC(=O)O[C@H](C)c1ccccc1` [IT373], the EC50 is greater than 0.5 µM.

For the molecule `C[C@@H](OC(=O)Nc1c(-c2cc3sc(-c4ccc5c(CC(=O)O)c[nH]c5c4)cc3s2)cnn1C)c1ccccc1` [IT377], the EC50 is greater than 0.5 µM.

Molecule `C[C@@H](OC(=O)Nc1c(-c2cc3sc(-c4ccc5c(CC(=O)O)c[nH]c5c4)cc3s2)nnn1C)c1ccccc1` [IT378] displayed an EC50 greater than 0.5 µM.

`C[C@@H](OC(=O)Nc1c(-c2cc3sc(-c4ccc(C5(C(=O)O)CC5)c(C(F)(F)F)c4)cc3s2)cnn1C)c1ccccc1` [IT379] registered an EC50 of 0.05 to 0.5 µM.

The molecule `C[C@@H](OC(=O)Nc1c(-c2cc3sc(-c4ccc(C5(C(=O)O)CC5)c(C(F)(F)F)c4)cc3s2)nnn1C)c1ccccc1` [IT380] yielded an EC50 of 0.05 to 0.5 µM.

Regarding `Cc1nsc(-c2cc3sc(-c4ccc(C5(C(=O)O)CC5)c(C(F)(F)F)c4)cc3s2)c1NC(=O)O[C@H](C)c1ccccc1` [IT381], the EC50 fell in the range of 0.05 to 0.5 µM.

For the molecule `COc1cc(CC(=O)O)c(F)cc1-c1cc2sc(-c3snc(C)c3NC(=O)O[C@H](C)c3ccccc3)cc2s1` [IT382], the EC50 was greater than 0.5 µM.

On to `C[C@@H](OC(=O)Nc1c(-c2cc3sc(-c4ccc(CC(=O)O)cc4OC(F)(F)F)cc3s2)cnn1C)c1ccccc1` [IT383], for which the EC50 was greater than 0.5 µM.

The molecule `Cc1nsc(-c2cc3sc(-c4ccc(CC(=O)O)cc4OC(F)(F)F)cc3s2)c1NC(=O)O[C@H](C)c1ccccc1` [IT384] yielded an EC50 greater than 0.5 µM.

`C[C@@H](OC(=O)Nc1c(-c2cc3sc(-c4ccc(C5(C(=O)O)CC5)cc4OC(F)(F)F)cc3s2)cnn1C)c1ccccc1` [IT385]: the EC50 is 0.05 to 0.5 µM.

The molecule `C[C@@H](OC(=O)Nc1c(-c2cc3sc(-c4ccc(C5(C(=O)O)CC5)cc4OC(F)(F)F)cc3s2)nnn1C)c1ccccc1` [IT386] displayed an EC50 of 0.05 to 0.5 µM.

As to `Cc1nsc(-c2cc3sc(-c4ccc(C5(C(=O)O)CC5)cc4OC(F)(F)F)cc3s2)c1NC(=O)O[C@H](C)c1ccccc1` [IT387], the EC50 lay in the range of 0.05 to 0.5 µM.

Regarding `Cc1noc(-c2ccc(-c3ccc(Oc4ccc(C(=O)O)o4)cc3)cc2)c1NC(=O)O[C@H](C)c1ccccc1` [IT388], the EC50 fell in the range of 0.05 to 0.5 µM.

Regarding `Cc1nsc(-c2cc3sc(-c4ccc(C5(C(=O)O)CC5)cc4Cl)cc3s2)c1NC(=O)O[C@H](C)c1ccccc1` [IT391], the EC50 fell in the range of 0.05 to 0.5 µM.

In the case of `C[C@@H](OC(=O)Nc1c(-c2cc3sc(-c4cnc(C5(C(=O)O)CC5)c(F)c4)cc3s2)cnn1C)c1ccccc1` [IT392], the EC50 fell in the range of 0.05 to 0.5 µM.

`C[C@@H](OC(=O)Nc1c(-c2cc3sc(-c4cnc(C5(C(=O)O)CC5)c(F)c4)cc3s2)nnn1C)c1ccccc1` [IT393] came in with an EC50 of less than 0.05 µM.

Molecule `C[C@@H](OC(=O)Nc1c(-c2cc3sc(-c4ccc5c(C6(C(=O)O)CC6)coc5c4)cc3s2)cnn1C)c1ccccc1` [IT395] registered an EC50 greater than 0.5 µM.

`C[C@@H](OC(=O)Nc1c(-c2cc3sc(-c4ccc5c(C6(C(=O)O)CC6)coc5c4)cc3s2)nnn1C)c1ccccc1` [IT396] had an EC50 of 0.05 to 0.5 µM.

Consider `Cc1nsc(-c2cc3sc(-c4ccc5c(C6(C(=O)O)CC6)coc5c4)cc3s2)c1NC(=O)O[C@H](C)c1ccccc1` [IT397], for which the EC50 is greater than 0.5 µM.

In turn, `C[C@@H](OC(=O)Nc1c(-c2ccc(C#CC(=O)NCC(=O)O)cc2)cnn1C)c1ccccc1` [IT398] yielded an EC50 greater than 0.5 µM.

In turn, `C[C@@H](NC(=O)C#Cc1ccc(-c2cnn(C)c2NC(=O)O[C@H](C)c2ccccc2)cc1)C(=O)O` [IT399] had an EC50 greater than 0.5 µM.

`C[C@H](NC(=O)C#Cc1ccc(-c2cnn(C)c2NC(=O)O[C@H](C)c2ccccc2)cc1)C(=O)O` [IT400] showed an EC50 greater than 0.5 µM.

On to `C[C@@H](OC(=O)Nc1c(-c2ccc(C#CC(=O)N[C@H](C(=O)O)c3ccccc3)cc2)cnn1C)c1ccccc1` [IT402], for which the EC50 is greater than 0.5 µM.

For the molecule `CC(C)[C@@H](NC(=O)C#Cc1ccc(-c2cnn(C)c2NC(=O)O[C@H](C)c2ccccc2)cc1)C(=O)O` [IT403], the EC50 is greater than 0.5 µM.

On to `CC(C)[C@H](NC(=O)C#Cc1ccc(-c2cnn(C)c2NC(=O)O[C@H](C)c2ccccc2)cc1)C(=O)O` [IT404], for which the EC50 was greater than 0.5 µM.

In turn, `C[C@@H](OC(=O)Nc1c(-c2ccc(C#CC(=O)NC3(C(=O)O)CC3)cc2)cnn1C)c1ccccc1` [IT405] came in with an EC50 greater than 0.5 µM.

In turn, `Cc1noc(-c2ccc(-c3ccc(Oc4ccc(C(=O)O)s4)cc3)cc2)c1NC(=O)O[C@H](C)c1ccccc1` [IT409] gave an EC50 of 0.05 to 0.5 µM.

As for `COc1cc(CC(=O)O)c(F)cc1-c1cc2sc(-c3cnn(C)c3NC(=O)O[C@H](C)c3ccccc3)cc2s1` [IT410], the EC50 was greater than 0.5 µM.

Regarding `COc1cc(C2(C(=O)O)CC2)c(F)cc1-c1cc2sc(-c3cnn(C)c3NC(=O)O[C@H](C)c3ccccc3)cc2s1` [IT411], the EC50 lay within 0.05 to 0.5 µM.

Regarding `COc1cc(C2(C(=O)O)CC2)c(F)cc1-c1cc2sc(-c3snc(C)c3NC(=O)O[C@H](C)c3ccccc3)cc2s1` [IT412], the concentration giving a half-maximal response (EC50) is greater than 0.5 µM.

Turning to `COc1cc(C2(C(=O)O)CC2)c(OC)cc1-c1cc2sc(-c3snc(C)c3NC(=O)O[C@H](C)c3ccccc3)cc2s1` [IT413], the EC50 is greater than 0.5 µM.

`COc1cc(C2(C(=O)O)CC2)c(OC)cc1-c1cc2sc(-c3cnn(C)c3NC(=O)O[C@H](C)c3ccccc3)cc2s1` [IT414] returned an EC50 greater than 0.5 µM.

The molecule `COc1cc(C2(C(=O)O)CC2)c(OC)cc1-c1cc2sc(-c3nnn(C)c3NC(=O)O[C@H](C)c3ccccc3)cc2s1` [IT415] yielded an EC50 greater than 0.5 µM.

Consider `C[C@@H](OC(=O)Nc1c(-c2cc3sc(-c4ccc(CC(=O)O)cc4OC(F)(F)F)cc3s2)nnn1C)c1ccccc1` [IT416], for which the EC50 is greater than 0.5 µM.

In the case of `Cc1noc(-c2ccc(-c3ccc(Oc4ncoc4C(=O)O)cc3)cc2)c1NC(=O)O[C@H](C)c1ccccc1` [IT419], the EC50 is 0.05 to 0.5 µM.

The molecule `Cc1nsc(-c2cc3sc(-c4ccc5[nH]c(C6(C(=O)O)CC6)nc5c4)cc3s2)c1NC(=O)O[C@H](C)c1ccccc1` [IT421] gave an EC50 greater than 0.5 µM.

`C[C@@H](OC(=O)Nc1c(-c2cc3sc(-c4ccc5[nH]c(C6(C(=O)O)CC6)nc5c4)cc3s2)nnn1C)c1ccccc1` [IT422] showed an EC50 greater than 0.5 µM.

For the molecule `Cc1nsc(-c2cc3sc(-c4ccc(C5(C(=O)O)CC5)cn4)cc3s2)c1NC(=O)O[C@H](C)c1ccccc1` [IT426], the EC50 was 0.05 to 0.5 µM.

`C[C@@H](OC(=O)Nc1c(-c2cc3sc(-c4ccc5[nH]c(C6(C(=O)O)CC6)nc5c4)cc3s2)cnn1C)c1ccccc1` [IT427]: the EC50 is greater than 0.5 µM.

`C[C@@H](OC(=O)Nc1c(-c2ccc(C#CC(=O)Nc3cccc(C(=O)O)c3)cc2)cnn1C)c1ccccc1` [IT429] came in with an EC50 greater than 0.5 µM.

In the case of `C[C@@H](OC(=O)Nc1c(-c2ccc(C#CC(=O)Nc3ccccc3C(=O)O)cc2)cnn1C)c1ccccc1` [IT430], the EC50 is greater than 0.5 µM.

`C[C@@H](OC(=O)Nc1c(-c2ccc(C#CC(=O)Nc3ccc(C(=O)O)cc3)cc2)cnn1C)c1ccccc1` [IT431] returned an EC50 greater than 0.5 µM.

Turning to `C[C@@H](OC(=O)Nc1c(-c2ccc(C#CC(=O)NCCC(=O)O)cc2)cnn1C)c1ccccc1` [IT432], the EC50 was greater than 0.5 µM.

Molecule `Cc1nsc(-c2cc3sc(-c4ccc(CC(=O)O)c(S(C)(=O)=O)c4)cc3s2)c1NC(=O)O[C@H](C)c1ccccc1` [IT433] registered an EC50 greater than 0.5 µM.

The molecule `C[C@@H](OC(=O)Nc1c(-c2cc3sc(-c4ccc(C5(C(=O)O)CC5)c(S(C)(=O)=O)c4)cc3s2)cnn1C)c1ccccc1` [IT441] gave an EC50 greater than 0.5 µM.
